Reference: patent US20160220637A1, “Pharmaceutical Compositions of Growth Hormone Secretagogue Receptor Ligands” (Ipsen Pharma S.A.S., priority 2010, published 2016)
pKi: −log10 of the molar value. Where a name gives a salt, the structure may show the parent alone. Non-standard residues stand in square brackets, D forms with d. Residues, ends and D or L forms follow the SMILES beside them. dBip = N[C@H](Cc1ccc(-c2ccccc2)cc1)C(=O)O; dBta = N[C@H](Cc1csc2ccccc12)C(=O)O; Api = NC1(C(=O)O)CCNCC1; Inp = O=C(O)C1CCNCC1

Columns and labels:
[1] = biological target: human recombinant GHS receptor (Homo sapiens, UniProt Q92847); conditions: read-out: hGHS Ki; 0.05 nM (125I)ghrelin, 60 min, 4° C., CHO-K1 membranes
Sequence of human recombinant GHS receptor (Q92847 whole entry): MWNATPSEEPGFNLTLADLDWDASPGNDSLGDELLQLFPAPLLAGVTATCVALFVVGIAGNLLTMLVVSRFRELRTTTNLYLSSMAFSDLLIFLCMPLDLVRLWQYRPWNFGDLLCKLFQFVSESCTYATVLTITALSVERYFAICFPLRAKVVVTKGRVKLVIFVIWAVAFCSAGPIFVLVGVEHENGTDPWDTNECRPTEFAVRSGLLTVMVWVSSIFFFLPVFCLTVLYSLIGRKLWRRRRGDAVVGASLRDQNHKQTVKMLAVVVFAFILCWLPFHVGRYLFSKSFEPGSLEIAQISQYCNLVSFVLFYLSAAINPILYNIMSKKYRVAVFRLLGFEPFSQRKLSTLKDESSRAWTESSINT
Experimental: Radioligand Binding Assays
Cellular membranes used for the in vitro receptor binding assay were obtained from transgenic CHO-K1 cells stably expressing the human recombinant GHS receptor. CHO-K1 cells stably expressing the hGHS receptor were homogenized in 20 ml of ice-cold 50 mM Tris-HCl with a Brinkman Polytron (Westbury, N.Y., USA) (setting 6, 15 sec). The homogenates were washed twice by centrifugation (39,000 g/10 min), and the final pellets were resuspended in 50 mM Tris-HCl, containing 2.5 mM MgCl2, and 0.1% BSA.

Solubility study = type: physicochemical
From the text: The mixture was sonicated to facilitate dissolution.

Structure (SMILES): NC(=O)[C@H](Cc1ccccc1)NC(=O)[C@@H](Cc1c[nH]c2ccccc12)NC(=O)[C@@H](Cc1ccc(-c2ccccc2)cc1)NC(=O)C1CCNCC1 [Example 16, H-Inp-D-Bip-D-Trp-Phe-NH2] (H-[Inp][dBip][dW]F-NH2)
- pKi [1]: 7.70

Structure (SMILES): NC(=O)C1(NC(=O)[C@H](Cc2ccccc2)NC(=O)[C@@H](Cc2c[nH]c3ccccc23)NC(=O)[C@@H](Cc2csc3ccccc23)NC(=O)C2CCNCC2)CCNCC1 [Pamoate salt of Example 1, pamoate salt of H-Inp-D-Bal-D-Trp-Phe-Apc-NH2] (H-[Inp][dBta][dW]F[Api]-NH2)
- Dissolution in PEG200/water (Solubility study; 50 mg in 125 μL PEG200 and 125 μL water, sonicated): A clear solution was obtained
- solubility (Solubility study; PBS, pH 7.4, PBS, pH 7.4, HPLC of supernatant): 70 µg/mL
- Solubility, Water, pH 7.0 (Solubility study; HPLC of supernatant): 0.06 mg/mL

Structure (SMILES): NC(=O)C1(NC(=O)[C@H](Cc2ccccc2)NC(=O)[C@@H](Cc2c[nH]c3ccccc23)NC(=O)[C@@H](Cc2csc3ccccc23)NC(=O)C2CCNCC2)CCNCC1 [Pamoate salt of Example 1 with Zn] (H-[Inp][dBta][dW]F[Api]-NH2)
- Solubility, PBS, pH 7.4 (Solubility study; PBS, pH 7.4, HPLC of supernatant): 0.08 mg/mL
- Solubility, Water, pH 7.0 (Solubility study; HPLC of supernatant): 0.14 mg/mL
